# Data published in paper PMC10108266, “Pharmacokinetic characteristics of golidocitinib, a highly selective JAK1 inhibitor, in healthy adult participants” (Frontiers in Immunology, 2023).
# Like-named read-outs stand apart in the source and are kept apart here.
# Columns and labels:
# [1] = Safety (TEAEs), JACKPOT2 MAD cohorts; format: in vivo, human; details: n = 6
# Text: Safety assessments included monitoring of adverse events/serious adverse events, clinical safety laboratory tests (clinical chemistry, hematology, coagulation, and urinalysis tests), 12-lead ECG, vital signs (blood pressure, pulse rate, and respiratory rate), and pulmonary function. All adverse events were coded using the Medical Dictionary for Regulatory Activities (MedDRA), version 22.0. The CTCAE 5.0 was used to define the intensity of AEs.
# [2] = JACKPOT2 single-ascending-dose plasma PK, healthy participants in USA; format: in vivo, human; details: for Cmax / Tmax / AUC(0-inf) / Vd/F / half-life: human, plasma; for Cmax / AUC(0-inf): geometric mean (CV%)
# Text: This was a Phase I, randomized, double-blinded, placebo-controlled study to assess the safety, tolerability, and PK of golidocitinib in healthy participants in the USA. This study included two parts: part A (single-ascending-dose [SAD] and food effect [FE] cohorts) and part B (multiple-ascending-dose [MAD] cohorts). Please refer to Figure 1 for the study flowchart.
# A total of 42 and 24 healthy participants were enrolled in part A and part B, respectively. In part A, a total of 30 participants were randomized into 5 SAD cohorts (n = 6 per cohort) and received a single dose of golidocitinib at different dose levels or a matching placebo in a 4:2 ratio. In the food effect cohort, a total of 12 participants were enrolled and received the study drug under fasted or fed conditions, with a sequential design. The 50 mg dose was selected based on available safety data after the completion of the SAD cohorts, and also on the outcomes from PK/PD modeling for potential efficacious dose for autoimmune disease. On Day 1, participants took a single dose of golidocitinib under fast condition. After a 14-day wash-out period, on Day 15, participants received another single dose of golidocitinib immediately after a standard high-fat meal. Food recipes and contents are consistent with that described in FDA Guidance for Food-Effect Bioavailability studies ([10]). For the fed condition, keeping fasted for at least 10 hours, participants started ingestion of high-fat meal 30 minutes prior to administration of golidocitinib. They had to finish the meal within 30 minutes or less, and no food was allowed for at least 4 hours post-dose. In part B, a total of 24 participants were randomized into 3 MAD cohorts, with 8 in each cohort (active:placebo = 6:2). In these cohorts, participants received golidocitinib at different dose levels or placebo once daily dosing for 14 days. Dose escalation was based on available PK and safety data in the previous cohorts.
# In the SAD cohorts, serial blood samples were obtained on Day 1 at pre-dose, and at 0.5, 1, 1.5, 2, 3, 4, 6, 10, 14, 24 (Day 2), 48 (Day 3), 72 (Day 4), 120 (Day 6), 168 (Day 8) and 216 (Day 10) hours post-dose for plasma PK analysis. A similar sampling schedule was undertaken for the MAD cohorts on Day 1 and Day 14, with additional trough samples obtained on Days 5, Day 8, and Day 11. In the MAD cohorts, urine samples were collected on Day 14 during the collection intervals of 0-4, 4-10, and 10-24 hours following the last dose for urine PK analysis. Plasma and urine samples were analyzed by Frontage Laboratories Inc. (New Jersey, USA) using a validated LC/MS/MS bioanalytical method to determine golidocitinib concentrations. Cross validation in plasma was successful between Frontage Laboratories Inc. (New Jersey, USA) and Frontage Laboratories Inc. (Shanghai) using clinical samples and spiked quality control samples.
# Non-compartmental PK analysis for golidocitinib concentrations was performed using Phoenix WinNonlin (Certara USA Inc., version 8.1).
# Dose proportionality was concluded if the 90% confidence interval for the ratio of dose-normalized, geometric mean values (Rdnm) was contained completely within the range of 0.8 - 1.25 ([11], [12]).
structure (smiles),measurement,setting,value
"COc1nn(C)cc1Nc1nccc(-c2c[nH]c3c(NC(=O)[C@@H](C)N4CCN(C)CC4)cccc23)n1 [golidocitinib, (2R)-N-[3-[2-[(3-Methoxy-1-methyl-pyrazol-4-yl)amino]pyrimidin-4-yl]-1H-indol-7-yl]-2-(4-methylpiperazin-1-yl)propenamide]",Abdominal pain upper,[1]; 25 mg once daily 14 days,0 n (%)
same,Blood and Lymphatic Disorders,[1]; 25 mg once daily 14 days,1 (16.7%) n (%)
same,Constipation,[1]; 25 mg once daily 14 days,1 (16.7%) n (%)
same,Dry throat,[1]; 25 mg once daily 14 days,0 n (%)
same,Gastrointestinal disorders,[1]; 25 mg once daily 14 days,1 (16.7%) n (%)
same,Headache,[1]; 25 mg once daily 14 days,0 n (%)
same,"Injury, poisoning and procedural complications",[1]; 25 mg once daily 14 days,0 n (%)
same,Leukopenia,[1]; 25 mg once daily 14 days,0 n (%)
same,Nausea,[1]; 25 mg once daily 14 days,0 n (%)
same,Nervous System Disorders,[1]; 25 mg once daily 14 days,0 n (%)
same,Neutropenia,[1]; 25 mg once daily 14 days,1 (16.7%) n (%)
same,"Respiratory, Thoracic and Mediastinal Disorders",[1]; 25 mg once daily 14 days,0 n (%)
same,Reticulocytopenia,[1]; 25 mg once daily 14 days,0 n (%)
same,Skin Laceration,[1]; 25 mg once daily 14 days,0 n (%)
same,Subjects with at least one TEAE,[1]; 25 mg once daily 14 days,2 (33.3%) n (%)
same,Abdominal pain upper,[1]; 50 mg once daily 14 days,1 (16.7%) n (%)
same,Blood and Lymphatic Disorders,[1]; 50 mg once daily 14 days,0 n (%)
same,Constipation,[1]; 50 mg once daily 14 days,1 (16.7%) n (%)
same,Dry throat,[1]; 50 mg once daily 14 days,0 n (%)
same,Gastrointestinal disorders,[1]; 50 mg once daily 14 days,1 (16.7%) n (%)
same,Headache,[1]; 50 mg once daily 14 days,1 (16.7%) n (%)
same,"Injury, poisoning and procedural complications",[1]; 50 mg once daily 14 days,0 n (%)
same,Leukopenia,[1]; 50 mg once daily 14 days,0 n (%)
same,Nausea,[1]; 50 mg once daily 14 days,1 (16.7%) n (%)
same,Nervous System Disorders,[1]; 50 mg once daily 14 days,1 (16.7%) n (%)
same,Neutropenia,[1]; 50 mg once daily 14 days,0 n (%)
same,"Respiratory, Thoracic and Mediastinal Disorders",[1]; 50 mg once daily 14 days,0 n (%)
same,Reticulocytopenia,[1]; 50 mg once daily 14 days,0 n (%)
same,Skin Laceration,[1]; 50 mg once daily 14 days,0 n (%)
same,Subjects with at least one TEAE,[1]; 50 mg once daily 14 days,1 (16.7%) n (%)
same,Abdominal pain upper,[1]; 100 mg once daily 14 days,0 n (%)
same,Blood and Lymphatic Disorders,[1]; 100 mg once daily 14 days,3 (50.0%) n (%)
same,Constipation,[1]; 100 mg once daily 14 days,0 n (%)
same,Dry throat,[1]; 100 mg once daily 14 days,0 n (%)
same,Gastrointestinal disorders,[1]; 100 mg once daily 14 days,0 n (%)
same,Headache,[1]; 100 mg once daily 14 days,1 (16.7%) n (%)
same,"Injury, poisoning and procedural complications",[1]; 100 mg once daily 14 days,0 n (%)
same,Leukopenia,[1]; 100 mg once daily 14 days,2 (33.3%) n (%)
same,Nausea,[1]; 100 mg once daily 14 days,0 n (%)
same,Nervous System Disorders,[1]; 100 mg once daily 14 days,1 (16.7%) n (%)
same,Neutropenia,[1]; 100 mg once daily 14 days,3 (50.0%) n (%)
same,"Respiratory, Thoracic and Mediastinal Disorders",[1]; 100 mg once daily 14 days,0 n (%)
same,Reticulocytopenia,[1]; 100 mg once daily 14 days,1 (16.7%) n (%)
same,Skin Laceration,[1]; 100 mg once daily 14 days,0 n (%)
same,Subjects with at least one TEAE,[1]; 100 mg once daily 14 days,3 (50.0%) n (%)
same,Cmax,"[2]; oral, single dose 5 mg",5.14 ng/mL
same,Tmax,"[2]; oral, single dose 5 mg, median (min, max), read-out: tmax",8 h
same,AUC(0-inf),"[2]; oral, single dose 20 mg",923 ng·h/mL
same,Cmax,"[2]; oral, single dose 20 mg",18.6 ng/mL
same,Vd/F,"[2]; oral, single dose 20 mg, mean (SD), read-out: Vz/F",1540 L
same,half-life,"[2]; oral, single dose 20 mg, median (min, max), read-out: t1/2 (converted)",51.3 h
same,Tmax,"[2]; oral, single dose 20 mg, median (min, max), read-out: tmax",8 h
same,AUC(0-inf),"[2]; oral, single dose 50 mg",2340 ng·h/mL
same,Cmax,"[2]; oral, single dose 50 mg",48.5 ng/mL
same,Vd/F,"[2]; oral, single dose 50 mg, mean (SD), read-out: Vz/F",1420 L
same,half-life,"[2]; oral, single dose 50 mg, median (min, max), read-out: t1/2 (converted)",42.8 h
same,Tmax,"[2]; oral, single dose 50 mg, median (min, max), read-out: tmax",6 h
same,AUC(0-inf),"[2]; oral, single dose 100 mg",5260 ng·h/mL
same,Cmax,"[2]; oral, single dose 100 mg",133 ng/mL
same,Vd/F,"[2]; oral, single dose 100 mg, mean (SD), read-out: Vz/F",1380 L
same,half-life,"[2]; oral, single dose 100 mg, median (min, max), read-out: t1/2 (converted)",50.4 h
same,Tmax,"[2]; oral, single dose 100 mg, median (min, max), read-out: tmax",2.5 h
same,AUC(0-inf),"[2]; oral, single dose 150 mg",7260 ng·h/mL
same,Cmax,"[2]; oral, single dose 150 mg",232 ng/mL
same,Vd/F,"[2]; oral, single dose 150 mg, mean (SD), read-out: Vz/F",1400 L
same,half-life,"[2]; oral, single dose 150 mg, median (min, max), read-out: t1/2 (converted)",46.6 h
same,Tmax,"[2]; oral, single dose 150 mg, median (min, max), read-out: tmax",3 h
same,Vd/F,"[2]; single oral administration, US participants, read-out: mean Vz/F",1380 to 1540 L
same,half-life,"[2]; single oral administration, across the dose range, US participants, read-out: median terminal half-life (t1/2)",42.8 to 51.3 h
same,Tmax,"[2]; single oral administration, across the dose range, US participants, read-out: median tmax",2.5 to 8 h
same,CL/F,"[2]; single dose 20 mg, mean (SD)",21.7 (1.18) L/hr
same,CL/F,"[2]; single dose 50 mg, mean (SD)",22.1 (6.20) L/hr
same,CL/F,"[2]; single dose 100 mg, mean (SD)",19.2 (3.09) L/hr
same,CL/F,"[2]; single dose 150 mg, mean (SD)",21.9 (8.58) L/hr
